# Measurements taken from patent US10705094B2, “TNF receptor signaling modulator assay” (UCB Biopharma SRL, priority 2015, dated 2020).
# Assays:
# TNFα [1] = target: T1, TNFα (Homo sapiens, UniProt P01375); assay: L929 murine fibrosarcoma cell-killing (neutralisation) assay; format: cell-based, mouse; set-up: host or cells: added to L929 murine fibrosarcoma cells (ECACC, 85011425); conditions: L929 cells; read-out: IC50 (inhibition of cell killing activity of human TNFα)
# Method: The L929 neutralisation assays were carried out using the protocol disclosed in Baarsch M J J et al (Immunol Methods 1991; 140: 15-22) and Galloway C J et al J (Immunol Methods 1991; 140: 37-43).
# Briefly, L929 cells (ECACC, 85011425) were cultured in culture medium consisting of RPMI 1640 (Gibco) containing 10% FCS (PAA), 2 mM glutamine (Gibco), 50 U/ml penicillin (Gibco) and 50 μg/ml streptomycin (Gibco). When they were subcultured, the cells were washed three times with 10 mL Dulbecco's phosphate-buffered saline without calcium and magnesium (Gibco) and 3 ml of trypsin-EDTA (Gibco) was then added for 2 minutes to remove the cells from the flask. Culture medium was added to neutralise the trypsin and the cells pipetted up and down to remove any clumps.
# The L929 cells were split 1/2 or 1/3 the day before use and cultured for a further 24 hours. The flasks were then trypsinised as above and 2×10^4 cells in 100 μl were added per well of a 96 well flat-bottomed plate (Becton Dickinson). The plates were cultured for 24 hours before the assay was set up.
# Serial dilutions were made from DMSO stocks of the compounds.
# The assay medium was the same as culture medium but also contained 1 μg/ml actinomycin D (Sigma). The medium was flicked off the plates and the assay samples plus TNFα, standards and controls were added in 100 μl volumes in duplicate. Plates were incubated for a further 16 hours and then 10 μl per well of a 5 mg/ml methylthiazoletetrazolium (MTT; Sigma) solution in culture medium was added for a further 4 hours. The reaction was stopped by the addition of 100 μl of solubilisation buffer containing 20% sodium dodecyl sulphate (SDS, BDH) dissolved in 50% dimethyl formamide (DMF; BDH) and 50% deionised water.
# After overnight incubation at 37° C. to allow the dye to dissolve, the plates were read on a Multiskan EX plate reader (Labsystem) at 570 nm with subtraction at 630 nm. Data were analysed using the Genesis software package.
# TNFα [2] = target: T1, TNFα; assay: Surface plasmon resonance kinetics of compound binding to immobilised TNFα (Biacore T100/T200)
# Method: Surface plasmon resonance was used to measure the association rate, the dissociation rate and the affinity of the compounds of formulae (1) and (2) for TNFα (FIGS. 13A and B). For the purpose of this study a Biacore T100/T200 was used.
# TNFα was immobilised at pH5 to a level of 5-8 KRU onto a CMS sensor in HBS-P buffer (10 mM HEPES pH 7.4, 0.15 M NaCl, 0.005% Surfactant P20, BIAcore, GE Healthcare). The TNFα was then equilibrated in HBS-P with 5% DMSO for at least 5 hours. The samples were diluted from 10 mM stocks into DMSO matched buffer and left to solubilise for at least 5 hours. The flow rate was 30 μL/min.
# This assay was performed by adding 4 or 5 concentrations of compound starting from a highest concentration of 25 μM for compound of formula (1) and 1 μM for compound of formula (2) and then serially diluting this sample. Background subtraction binding curves were analysed using the BIAevaluation software following standard procedures. Binding, affinity and kinetic parameters were determined using Biacore software. The kinetic data were fitted using the levenberg marquardt algorithm.
# TNFα [3] = target: T1, TNFα; assay: Fluorescence polarization assay, competition with the compound of formula (4) for TNFα; conditions: TNFα 50 nM, compound of formula (4) 10 nM, 5% DMSO; read-out: IC50 (inhibition of binding of the compound of formula (4) to TNFα)
# Method: The final concentrations of TNFα and the compound of formula (4) were 50 nM and 10 nM respectively in a total assay volume of 25 μl. Plates were read on an Analyst HT reader. An IC50 was calculated using xlfit (4 parameter logistic model) in Activity Base.
# C87 was preincubated with TNFα for 1 hour prior to assay against the fluorescent compound (probe). Competition with the fluorescent compound either directly (binding at the same site) or indirectly (disrupting TNF) is detected by a reduction in FP.
# [4] = target: T2, TNFα binding to the TNF receptor (TNFR-ECD) (Homo sapiens, UniProt P01375); assay: Meso Scale Discovery (MSD) assay of TNFα binding to plate-coated TNFR-ECD; conditions: single point assay, 100 μM compound, 5% final v/v DMSO
# T2 construct: purchased R&D Systems
# Method: 384 well uncoated plates (standard binding) Meso Scale Discovery plates (MSD) were coated overnight with the extracellular domain of TNFR (TNFR-ECD) (10 μl, 1 ug/mL in PBS). To ensure even distribution plates were centrifuged at 1000 rpm for 2 minutes. The plates were then sealed and stored at +4° C. overnight.
# The wells of the plates were then washed three times in 50 μl phosphate buffered saline pH 6.5 (PB) with 0.05% Tween 20 (wash buffer), and then blocked with 50 μl 2% BSA. The plates were then incubated at room temperature on a shaker (600 rpm) for 2 hours. After this incubation plates were washed (3×50 μl wash buffer per well).
# During the blocking incubation, compounds of formulae (1) and (2) were pre-incubated with TNF (R&D Systems) prior to addition to the pre-blocked and washed MSD plates. For a single point assay as shown in FIG. 3A the compounds were assayed at a final concentration of 100 μM (5% final v/v DMSO).
# Pre-diluted compounds of formulae (1) and (2) were added at a ratio of 1:1 to 4 ng/mL TNF (final concentration 2 ng/ml), and then incubated at room temperature on a shaker 600 rpm for 1 hour.
# 10 μl of pre-incubated mixtures of compound of formulae (1) or (2) with TNFα were added to the prepared MSD plate and incubated at room temperature on a shaker for 1 hour.
# The plates were then washed with wash buffer (3×50 μl per well). Sulfo-tagged anti-TNF polyclonal antibody was then added to each well and the plates incubated for a further 1.5 hours at room temperature on a shaker.
# The plates were then washed (3×50 μl wash buffer per well), followed by the addition of 50 μl MSD Read buffer T plus surfactant (diluted 1 in 2 in H2O) and read on a SECTOR Imager 6000.
# For single point assays percentage inhibition was calculated using a control sample without compound.
# For EC50s determination results were calculated by standard means using a 4 parameter logistic model (sigmoidal dose response model).
# T1 sequence (P01375 77-233 limits assumed): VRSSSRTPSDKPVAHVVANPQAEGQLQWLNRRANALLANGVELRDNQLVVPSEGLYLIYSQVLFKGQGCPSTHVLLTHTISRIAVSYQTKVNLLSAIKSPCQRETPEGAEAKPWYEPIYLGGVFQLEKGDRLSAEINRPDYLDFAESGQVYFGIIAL
# T2 sequence (P01375 77-233 limits assumed): as above
"Kd (TNFα [2]; calculated from koff/kon, read-out: dissociation constant (KD)) [µM]","kon (TNFα [2]; immobilised TNFα, HBS-P with 5% DMSO) [M⁻¹ s⁻¹]","koff (TNFα [2]; immobilised TNFα, HBS-P with 5% DMSO, read-out: dissociation rate constant (koff)) [s⁻¹]",IC50 (TNFα [3]) [µM],% inhibition of TNFα binding to the TNF receptor [4],Structure (SMILES),IC50 (TNFα [1]) [µM]
0.007,5470,4.07e-05,0.02,,"O=C1CCCN1c1cccc(OCc2nc3ccc(-c4ccc(=O)[nH]c4)cc3n2Cc2ccccc2OC(F)F)c1 [Compound (3), 5-(1-[2-(Difluoromethoxy)benzyl]-2-{[3-(2-oxo-pyrrolidin-1-yl)phenoxy]methyl}-1H-benzimidazol-6-yl)-pyridin-2(1H)-one]",0.021
,,,,+80%,"Cc1cc2occ(CN(C)CCN(C)Cc3cn(-c4cccc(C(F)(F)F)c4)c4ccccc34)c(=O)c2cc1C [SPD-304, reference compound]",
